The values that follow come from US11358952B2, “Substituted 4-aminoisoindoline-1,3-dione compounds, compositions thereof, and methods of treatment therewith” (Celgene Corporation, priority 2018, dated 2022).

Structures are written as SMILES. pIC50: −log10 of the molar value. A value given as a limit tells only on which side of the number the result lay.

In this test the test system is SU-DHL-4 cell line. Put plainly: SU-DHL-4 cell proliferation assay (Cell Titer-Glo viability). To be noted: Homo sapiens; cell viability IC50 activity level, DLBCL cell line SU-DHL-4, 120 hours post-treatment; read-out: SU-DHL-4 Act. The class given is cell-based. Put shortly: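 SU-DHL-4 cells (500/well, RPMI-1640 + 10% FBS) exposed to 20-point compound dilutions (0.5 nM–10 μM, 0.1% DMSO) for 120 h at 37°C, 5% CO2. Viability measured by Cell Titer-Glo luminescence at t0 and at 120 h. IC50 is the concentration giving 50% of DMSO control, from a four-parameter logistic fit.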
(ATP-based viability assays read luminescence as a measure of living cells.)
On to `Cc1cc(CNc2cccc3c2C(=O)N(C2CCC(=O)NC2=O)C3=O)ccc1CN1CC(C(C)C)C1` (stereo not drawn) [Cpd 202, 2-(2,6-dioxopiperidin-3-yl)-4-(4-((3-isopropylazetidin-1-yl)methyl)-3-methylbenzylamino)isoindoline-1,3-dione], for which the pIC50 is above 6.70.
`NC(=O)c1ccc(N2CCN(Cc3ccc(CNc4cccc5c4C(=O)N(C4CCC(=O)NC4=O)C5=O)cc3)CC2)nc1` (stereo not drawn) [Cpd 54, 6-(4-(4-((2-(2,6-dioxopiperidin-3-yl)-1,3-dioxoisoindolin-4-ylamino)methyl)benzyl)piperazin-1-yl)nicotinamide]: the pIC50 is 6.30 to 6.70.
The result for `N#Cc1ccc(C2CN(Cc3ccc(CNc4cccc5c4C(=O)N(C4CCC(=O)NC4=O)C5=O)c(F)c3)C2)cc1` (stereo not drawn) [Cpd 104, 4-(1-(4-((2-(2,6-dioxopiperidin-3-yl)-1,3-dioxoisoindolin-4-ylamino)methyl)-3-fluorobenzyl)azetidin-3-yl)benzonitrile] reads above 6.70; that for `O=C1CCC(N2C(=O)c3cccc(NCc4ccc(CN5CCC6(CCCO6)CC5)c(F)c4)c3C2=O)C(=O)N1` (stereo not drawn) [Cpd 147, 4-(4-(1-oxa-8-azaspiro[4.5]decan-8-ylmethyl)-3-fluorobenzylamino)-2-(2,6-dioxopiperidin-3-yl)isoindoline-1,3-dione], 6.30 to 6.70.
As to `O=C1CCC(N2C(=O)c3cccc(NCc4ccc(CN5Cc6cccc(C(F)(F)F)c6C5)cc4)c3C2=O)C(=O)N1` (stereo not drawn) [Cpd 164, 2-(2,6-dioxopiperidin-3-yl)-4-(4-((4-(trifluoromethyl)isoindolin-2-yl)methyl)benzylamino)isoindoline-1,3-dione], the pIC50 is 6.30 to 6.70.
As for `NC(=O)c1ccc(N2CCN(Cc3ccc(CNc4cccc5c4C(=O)N(C4CCC(=O)NC4=O)C5=O)c(F)c3)CC2)nc1` (stereo not drawn) [Cpd 149, 6-(4-(4-((2-(2,6-dioxopiperidin-3-yl)-1,3-dioxoisoindolin-4-ylamino)methyl)-3-fluorobenzyl)piperazin-1-yl)nicotinamide], the pIC50 was above 6.70.
With `CC(C)C1CCN(Cc2ccc(CNc3cccc4c3C(=O)N(C3CCC(=O)NC3=O)C4=O)cc2F)CC1` (stereo not drawn) [Cpd 99, 2-(2,6-dioxopiperidin-3-yl)-4-(3-fluoro-4-((4-isopropylpiperidin-1-yl)methyl)benzylamino)isoindoline-1,3-dione] the figure was above 6.70; with `CC(C)C1CCN(Cc2ccc(CNc3cccc4c3C(=O)N(C3CCC(=O)NC3=O)C4=O)c(F)c2)CC1` (stereo not drawn) [Cpd 103, 2-(2,6-dioxopiperidin-3-yl)-4-(2-fluoro-4-((4-isopropylpiperidin-1-yl)methyl)benzylamino)isoindoline-1,3-dione], above 6.70.
Take `Cc1cc(CNc2cccc3c2C(=O)N(C2CCC(=O)NC2=O)C3=O)ccc1CN1CCC2(CCC2)CC1` (stereo not drawn) [Cpd 46, 4-(4-(7-azaspiro[3.5]nonan-7-ylmethyl)-3-methylbenzylamino)-2-(2,6-dioxopiperidin-3-yl)isoindoline-1,3-dione]: the pIC50 is above 6.70.
Consider `O=C1CCC(N2C(=O)c3cccc(NCc4ccc(CN5CCCOCC5)cc4F)c3C2=O)C(=O)N1` (stereo not drawn) [Cpd 242, 4-(4-((1,4-oxazepan-4-yl)methyl)-2-fluorobenzylamino)-2-(2,6-dioxopiperidin-3-yl)isoindoline-1,3-dione], for which the pIC50 was 6.30 to 6.70.
With `O=C1CCC(N2C(=O)c3cccc(NCc4ccc(CN5CCC(C6CCOCC6)CC5)cc4)c3C2=O)C(=O)N1` (stereo not drawn) [Cpd 213, 2-(2,6-dioxopiperidin-3-yl)-4-(4-((4-(tetrahydro-2H-pyran-4-yl)piperridin-1-yl)methyl)benzylamino)isoindoline-1,3-dione] the figure was above 6.70; with `CN1CCC2(CCN(Cc3ccc(CNc4cccc5c4C(=O)N(C4CCC(=O)NC4=O)C5=O)c(F)c3)CC2)C1=O` (stereo not drawn) [Cpd 151, 2-(2,6-dioxopiperidin-3-yl)-4-(2-fluoro-4-((2-methyl-1-oxo-2,8-diazaspiro[4.5]decan-8-yl)methyl)benzylamino)isoindoline-1,3-dione], above 6.70.
